“And” between values parts separate entries of the source, which are not always exact repeats. Equal entries are not always repeated.
Experiments:
Type in all cases: ADME, organism-based
[1] = system: Homo sapiens; test: (§1) Pharmacokinetic parameters for Lidocaine, and Prilocaine after topical administration of EMLA cream intact skin on the lateral thighs, vaginal fornices and penile skin of subjects; parameters: dose 1.5 g, route topical; conditions: in vivo, topical_or_ocular; for C / Tmax: route topical
[2] = as §1; parameters: dose 1.5 g, route topical; conditions: human, in vivo, topical or ocular, 1.5 g; dosed compound id 50, dosed compound name PRILOCAINE, regimen Single dose, study dosing duration 3 hours, tissue Plasma
[3] = Evaluation of pharmacokinetic parameters for Lidocaine, and Prilocaine following intravenous (IV) administration of Lidocaine or application of a cream.; conditions: human, dosed compound id 50, dosed compound name PRILOCAINE, tissue Plasma
[4] = dose 0.5 to 3.3 g, dosed compound id 50, dosed compound name PRILOCAINE, gender female, regimen Single dose, study dosing duration 10 to 60 minutes, tissue Plasma

Cmax [1]	Cmax [2] [ng/mL]	C [1, 4] [ng/mL]	Tmax [1, 4] [h]	C ([1]; dose 0.5 to 3.3 g, dosed compound id 50, dosed compound name PRILOCAINE, gender male, regimen Single dose, study dosing duration 15 minutes, tissue Plasma) [ng/mL]	Tmax ([1]; dose 1.5 g, dosed compound id 50, dosed compound name PRILOCAINE, regimen Single dose, study dosing duration 3 hours, tissue Plasma) [h]	Tmax ([1]; dose 1.5 g, dosed compound id 50, dosed compound name PRILOCAINE, regimen Single dose, study dosing duration 24 hours, tissue Plasma) [h]	Cmax ([1]; dosed compound id 50, dosed compound name PRILOCAINE, regimen Single dose, study dosing duration 24 hours, tissue Plasma) [ng/mL]	clearance ([3]; in vivo, route iv) [mL/min/kg]	half-life ([3]; in vivo, route iv) [h]	Vd ([3]; in vivo, route iv, read-out: Vss) [L/kg]	fraction unbound ([3]; topical or ocular, route topical, read-out: Protein binding (converted))	Structure (SMILES)
120 ng/mL and 280 ng/mL												CCN(CC)CC(=O)Nc1c(C)cccc1C [LIDOCAINE]
	70	40 to 346	0.35 to 1.58	2.5 to 7	4	10	140	38	1.17	2.6	0.45	CCCNC(C)C(=O)Nc1ccccc1C (configuration not stated) [PRILOCAINE]

— ChEMBL document CHEMBL3832034
